Experimental findings from ChEMBL document CHEMBL1201862, “PubChem BioAssay data set” (2004) are described below.

Assay [1] can be described thus: C. albicans growth with fluconazole, confirmation, fluorescence, retest (AID 2467). Format: functional, cell-based.
The target of assay [2] is T1, Replicative DNA helicase DnaB (Mycobacterium tuberculosis, UniProt P9WMR3).
T1 sequence (P9WMR3 whole entry): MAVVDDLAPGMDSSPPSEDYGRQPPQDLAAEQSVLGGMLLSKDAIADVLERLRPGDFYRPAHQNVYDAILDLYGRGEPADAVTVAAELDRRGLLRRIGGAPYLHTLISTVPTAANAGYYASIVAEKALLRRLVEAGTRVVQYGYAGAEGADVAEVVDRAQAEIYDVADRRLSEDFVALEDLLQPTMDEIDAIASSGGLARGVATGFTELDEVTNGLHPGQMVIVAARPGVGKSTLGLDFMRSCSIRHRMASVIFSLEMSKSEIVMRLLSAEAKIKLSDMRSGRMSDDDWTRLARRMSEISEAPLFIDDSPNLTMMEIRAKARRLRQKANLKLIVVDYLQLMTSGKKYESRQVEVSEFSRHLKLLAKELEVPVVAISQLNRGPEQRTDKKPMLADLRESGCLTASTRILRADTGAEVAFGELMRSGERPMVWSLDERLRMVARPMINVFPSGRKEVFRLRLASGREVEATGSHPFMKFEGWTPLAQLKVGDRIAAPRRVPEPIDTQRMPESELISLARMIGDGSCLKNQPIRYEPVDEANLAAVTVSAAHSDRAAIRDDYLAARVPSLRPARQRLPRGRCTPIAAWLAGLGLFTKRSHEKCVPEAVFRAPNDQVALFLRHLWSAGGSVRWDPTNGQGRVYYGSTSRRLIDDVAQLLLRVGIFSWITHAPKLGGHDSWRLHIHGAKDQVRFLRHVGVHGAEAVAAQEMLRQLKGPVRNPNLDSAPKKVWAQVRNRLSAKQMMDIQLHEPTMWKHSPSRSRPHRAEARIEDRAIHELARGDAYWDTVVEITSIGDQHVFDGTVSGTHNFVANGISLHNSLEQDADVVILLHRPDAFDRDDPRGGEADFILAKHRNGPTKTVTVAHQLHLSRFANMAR
Nature of the assay: DnaB intein splicing inhibitors, dose response, biochemical, cell-free fluorescence (AID 449749). Format: functional.

A short description of assay [3]: Counterscreen for AddAB inhibitors: absorbance-based bacterial cell-based high throughput dose response assay for inhibitors of bacterial viability. [Related pubchem assays (depositor defined):AID435030, AID449728, AID449731, AID488942, AID488955, AID488956]. Format: functional. (In general: The purpose of a counterscreen is to sort out artefacts and off-target activity.)

The target in another assay is LIM domain kinase 1 (Homo sapiens, UniProt P53667). Nature of the assay: Navigating the Kinome. Panel member name: LIMK1. Format: functional.
Assay [4] addresses Serine/threonine-protein kinase Chk1 (Homo sapiens, UniProt O14757). The class given is functional.
For assay [5], the target named is Mitogen-activated protein kinase 14 (Homo sapiens, UniProt Q16539). The class given is functional.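 Note: part of a kinome-wide panel, MAPK14 entry.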
Assay [6] addresses Leukocyte tyrosine kinase receptor (Homo sapiens, UniProt P29376). Put plainly: Navigating the Kinome. Panel member name: LTK. Format: functional.
The target in assay [7] is Mitogen-activated protein kinase kinase kinase kinase 4 (Homo sapiens, UniProt O95819). Format: functional.
Assay [8] concerns the target Receptor-type tyrosine-protein kinase FLT3 (Homo sapiens, UniProt P36888). The class given is functional.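 Note: FLT3 was tested as one member of a kinome-wide kinase panel.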
The target in assay [9] is Dual specificity mitogen-activated protein kinase kinase 1 (Homo sapiens, UniProt Q02750). Nature of the assay: Navigating the Kinome. Panel member name: MAP2K1. Format: functional.
For assay [10], the target named is Mitogen-activated protein kinase 9 (Homo sapiens, UniProt P45984). The class given is functional.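 Note: value from a kinome panel profiling assay, MAPK9 panel entry.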
For assay [11], the target named is Serine/threonine-protein kinase TAO1 (Homo sapiens, UniProt Q7L7X3). The class given is functional.
Chain of Serine/threonine-protein kinase TAO1 (Q7L7X3 whole entry): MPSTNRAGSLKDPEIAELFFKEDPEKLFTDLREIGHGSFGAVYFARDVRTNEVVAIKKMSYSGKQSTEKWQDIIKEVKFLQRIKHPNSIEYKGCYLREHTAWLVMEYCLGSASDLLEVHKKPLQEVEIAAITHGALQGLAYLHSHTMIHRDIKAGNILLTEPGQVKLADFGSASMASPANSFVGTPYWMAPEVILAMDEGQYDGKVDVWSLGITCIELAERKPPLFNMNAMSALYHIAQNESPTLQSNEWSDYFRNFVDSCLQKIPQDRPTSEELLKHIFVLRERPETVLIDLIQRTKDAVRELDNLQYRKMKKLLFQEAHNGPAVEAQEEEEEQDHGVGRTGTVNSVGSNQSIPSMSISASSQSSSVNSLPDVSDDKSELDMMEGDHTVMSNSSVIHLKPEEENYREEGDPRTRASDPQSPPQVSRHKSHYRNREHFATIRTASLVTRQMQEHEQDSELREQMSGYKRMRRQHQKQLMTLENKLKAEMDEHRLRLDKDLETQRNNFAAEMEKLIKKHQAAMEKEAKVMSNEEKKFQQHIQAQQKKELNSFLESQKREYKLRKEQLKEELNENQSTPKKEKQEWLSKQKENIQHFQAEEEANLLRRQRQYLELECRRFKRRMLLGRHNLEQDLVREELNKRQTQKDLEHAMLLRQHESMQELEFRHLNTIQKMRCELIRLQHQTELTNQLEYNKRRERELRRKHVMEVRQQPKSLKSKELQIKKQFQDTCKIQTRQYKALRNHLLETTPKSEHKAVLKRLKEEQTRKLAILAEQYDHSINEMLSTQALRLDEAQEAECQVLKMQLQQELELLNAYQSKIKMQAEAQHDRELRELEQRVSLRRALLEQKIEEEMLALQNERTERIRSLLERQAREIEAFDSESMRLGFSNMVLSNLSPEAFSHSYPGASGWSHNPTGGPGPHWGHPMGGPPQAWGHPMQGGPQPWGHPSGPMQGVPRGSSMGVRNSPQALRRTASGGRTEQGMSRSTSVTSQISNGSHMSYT
Assay [12] concerns the target Rho-associated protein kinase 1 (Homo sapiens, UniProt Q13464). Format: functional.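 Note: measured within a broad kinome-wide panel profiling many kinases.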
Assay [13] deals with Cyclin-dependent kinase 7 (Homo sapiens, UniProt P50613). Format: functional.
In assay [14] the target is BDNF/NT-3 growth factors receptor (Homo sapiens, UniProt Q16620). Format: functional.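 Note: NTRK2 measured as one member of a broad kinome-wide kinase profiling panel.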
In assay [15] the target is Calcium/calmodulin-dependent protein kinase type II subunit alpha (Homo sapiens, UniProt Q9UQM7). Put plainly: Navigating the Kinome. Panel member name: CAMK2A. The class given is functional.
Chain of Calcium/calmodulin-dependent protein kinase type II subunit alpha (Q9UQM7 whole entry): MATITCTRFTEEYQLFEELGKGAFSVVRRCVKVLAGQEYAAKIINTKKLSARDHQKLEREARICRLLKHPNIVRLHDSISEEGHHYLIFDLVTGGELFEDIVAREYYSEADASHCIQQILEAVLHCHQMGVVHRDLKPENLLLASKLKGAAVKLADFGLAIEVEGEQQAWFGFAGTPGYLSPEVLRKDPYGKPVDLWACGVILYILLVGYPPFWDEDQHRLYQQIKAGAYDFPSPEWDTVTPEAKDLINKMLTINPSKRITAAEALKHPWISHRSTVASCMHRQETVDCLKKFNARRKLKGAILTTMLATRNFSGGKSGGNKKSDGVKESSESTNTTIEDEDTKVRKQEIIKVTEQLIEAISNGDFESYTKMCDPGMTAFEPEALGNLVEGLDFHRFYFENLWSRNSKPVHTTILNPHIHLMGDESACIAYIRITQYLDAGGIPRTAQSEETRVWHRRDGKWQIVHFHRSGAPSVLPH
In assay [16] the target is Insulin-like growth factor 1 receptor (Homo sapiens, UniProt P08069). Nature of the assay: Navigating the Kinome. Panel member name: IGF1R. The class given is functional.
Chain of Insulin-like growth factor 1 receptor (P08069 31-736 limits assumed): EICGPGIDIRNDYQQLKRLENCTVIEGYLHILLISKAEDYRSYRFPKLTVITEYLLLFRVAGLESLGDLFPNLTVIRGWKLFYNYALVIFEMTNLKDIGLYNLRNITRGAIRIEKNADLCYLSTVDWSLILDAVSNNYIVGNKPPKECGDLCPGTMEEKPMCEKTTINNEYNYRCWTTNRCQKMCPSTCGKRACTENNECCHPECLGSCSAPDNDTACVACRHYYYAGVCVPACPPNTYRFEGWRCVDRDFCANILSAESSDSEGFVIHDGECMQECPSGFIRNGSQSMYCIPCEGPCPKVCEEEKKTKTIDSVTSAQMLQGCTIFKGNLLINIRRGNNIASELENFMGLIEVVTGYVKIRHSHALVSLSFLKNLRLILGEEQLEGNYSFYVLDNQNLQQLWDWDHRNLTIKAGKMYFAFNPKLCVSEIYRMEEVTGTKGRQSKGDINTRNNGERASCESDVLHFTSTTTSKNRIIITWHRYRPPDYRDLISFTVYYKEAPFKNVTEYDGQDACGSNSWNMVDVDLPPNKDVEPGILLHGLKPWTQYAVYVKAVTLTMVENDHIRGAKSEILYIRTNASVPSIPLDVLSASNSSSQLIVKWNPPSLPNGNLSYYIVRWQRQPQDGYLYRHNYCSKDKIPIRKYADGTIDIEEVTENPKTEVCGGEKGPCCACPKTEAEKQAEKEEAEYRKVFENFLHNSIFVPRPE
Chain of Insulin-like growth factor 1 receptor (P08069 741-1367 limits assumed): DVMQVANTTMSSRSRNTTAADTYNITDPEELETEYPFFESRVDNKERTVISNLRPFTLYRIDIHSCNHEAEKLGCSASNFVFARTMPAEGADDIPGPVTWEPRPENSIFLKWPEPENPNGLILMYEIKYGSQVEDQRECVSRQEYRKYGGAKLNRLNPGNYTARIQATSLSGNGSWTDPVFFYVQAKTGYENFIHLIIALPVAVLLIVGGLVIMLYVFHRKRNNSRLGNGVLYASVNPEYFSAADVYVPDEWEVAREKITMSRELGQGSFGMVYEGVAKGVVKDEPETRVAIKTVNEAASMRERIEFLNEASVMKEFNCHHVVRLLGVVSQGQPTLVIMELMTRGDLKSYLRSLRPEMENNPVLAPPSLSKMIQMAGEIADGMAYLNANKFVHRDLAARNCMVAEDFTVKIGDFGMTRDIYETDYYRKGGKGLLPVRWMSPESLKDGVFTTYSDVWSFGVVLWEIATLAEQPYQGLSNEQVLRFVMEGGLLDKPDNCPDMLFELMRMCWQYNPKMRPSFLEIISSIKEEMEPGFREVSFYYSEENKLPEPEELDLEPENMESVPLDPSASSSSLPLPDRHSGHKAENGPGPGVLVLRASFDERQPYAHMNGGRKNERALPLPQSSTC
The target in assay [17] is G protein-coupled receptor kinase 5 (Homo sapiens, UniProt P34947). Nature of the assay: Navigating the Kinome. Panel member name: GPRK5. The class given is functional.
Chain of G protein-coupled receptor kinase 5 (P34947 whole entry): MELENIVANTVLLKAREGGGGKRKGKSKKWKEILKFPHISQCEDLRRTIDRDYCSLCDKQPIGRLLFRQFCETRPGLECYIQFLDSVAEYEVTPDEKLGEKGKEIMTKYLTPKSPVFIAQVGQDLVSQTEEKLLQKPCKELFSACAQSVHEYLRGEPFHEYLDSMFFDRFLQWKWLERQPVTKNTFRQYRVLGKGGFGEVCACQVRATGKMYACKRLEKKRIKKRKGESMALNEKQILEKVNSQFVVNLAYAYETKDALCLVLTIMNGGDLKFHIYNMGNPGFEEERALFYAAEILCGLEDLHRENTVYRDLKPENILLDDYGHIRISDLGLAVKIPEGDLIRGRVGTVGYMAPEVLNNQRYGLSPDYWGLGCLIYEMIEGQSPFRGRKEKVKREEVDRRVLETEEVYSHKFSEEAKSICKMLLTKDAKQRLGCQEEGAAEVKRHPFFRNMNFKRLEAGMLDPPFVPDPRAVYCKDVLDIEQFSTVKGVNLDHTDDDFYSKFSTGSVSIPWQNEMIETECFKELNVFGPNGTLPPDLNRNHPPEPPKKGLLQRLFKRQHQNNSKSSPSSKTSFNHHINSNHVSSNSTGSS
Assay [18] concerns the target Ribosomal protein S6 kinase alpha-3 (Homo sapiens, UniProt P51812). The class given is functional.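 Note: measured within a kinome-wide profiling panel.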
The target of assay [19] is T2, Sentrin-specific protease 8 (Homo sapiens, UniProt Q96LD8).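 Note: luminescence read-out of SENP8 inhibition, dose-response confirmation following an ultra-high-throughput screen.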
T2 sequence (Q96LD8 whole entry): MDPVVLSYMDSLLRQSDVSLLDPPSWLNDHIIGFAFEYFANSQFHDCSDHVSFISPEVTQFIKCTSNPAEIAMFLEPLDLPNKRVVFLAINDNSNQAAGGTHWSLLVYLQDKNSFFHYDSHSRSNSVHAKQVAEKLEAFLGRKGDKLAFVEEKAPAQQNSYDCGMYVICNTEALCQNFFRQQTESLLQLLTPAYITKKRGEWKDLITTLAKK
The class given is functional.

The next assay concerns the target T3, Estrogen receptor (Homo sapiens, UniProt P03372).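 Note: potency for inhibiting coactivator peptide recruitment to the receptor.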
T3 sequence (P03372 whole entry): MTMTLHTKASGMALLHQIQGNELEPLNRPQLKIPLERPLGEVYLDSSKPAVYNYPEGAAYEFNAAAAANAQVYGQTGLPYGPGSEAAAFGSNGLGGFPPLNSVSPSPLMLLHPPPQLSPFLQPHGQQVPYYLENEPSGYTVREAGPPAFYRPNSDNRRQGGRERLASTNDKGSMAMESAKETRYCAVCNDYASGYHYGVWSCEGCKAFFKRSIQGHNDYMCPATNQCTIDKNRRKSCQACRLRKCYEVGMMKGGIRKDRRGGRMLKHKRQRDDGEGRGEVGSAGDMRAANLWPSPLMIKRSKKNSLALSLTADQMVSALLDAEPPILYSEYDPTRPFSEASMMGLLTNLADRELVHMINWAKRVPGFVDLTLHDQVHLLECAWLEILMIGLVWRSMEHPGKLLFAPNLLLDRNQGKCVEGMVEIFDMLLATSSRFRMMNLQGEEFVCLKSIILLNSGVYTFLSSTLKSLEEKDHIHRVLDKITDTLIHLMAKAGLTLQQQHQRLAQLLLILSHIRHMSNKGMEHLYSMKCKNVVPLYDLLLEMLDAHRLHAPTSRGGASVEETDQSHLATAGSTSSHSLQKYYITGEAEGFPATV

Molecules are shown by their SMILES. Active and inactive are the calls of the source. Bounds are passed on as bounds.

Chain of Rho-associated protein kinase 1 (Q13464 whole entry): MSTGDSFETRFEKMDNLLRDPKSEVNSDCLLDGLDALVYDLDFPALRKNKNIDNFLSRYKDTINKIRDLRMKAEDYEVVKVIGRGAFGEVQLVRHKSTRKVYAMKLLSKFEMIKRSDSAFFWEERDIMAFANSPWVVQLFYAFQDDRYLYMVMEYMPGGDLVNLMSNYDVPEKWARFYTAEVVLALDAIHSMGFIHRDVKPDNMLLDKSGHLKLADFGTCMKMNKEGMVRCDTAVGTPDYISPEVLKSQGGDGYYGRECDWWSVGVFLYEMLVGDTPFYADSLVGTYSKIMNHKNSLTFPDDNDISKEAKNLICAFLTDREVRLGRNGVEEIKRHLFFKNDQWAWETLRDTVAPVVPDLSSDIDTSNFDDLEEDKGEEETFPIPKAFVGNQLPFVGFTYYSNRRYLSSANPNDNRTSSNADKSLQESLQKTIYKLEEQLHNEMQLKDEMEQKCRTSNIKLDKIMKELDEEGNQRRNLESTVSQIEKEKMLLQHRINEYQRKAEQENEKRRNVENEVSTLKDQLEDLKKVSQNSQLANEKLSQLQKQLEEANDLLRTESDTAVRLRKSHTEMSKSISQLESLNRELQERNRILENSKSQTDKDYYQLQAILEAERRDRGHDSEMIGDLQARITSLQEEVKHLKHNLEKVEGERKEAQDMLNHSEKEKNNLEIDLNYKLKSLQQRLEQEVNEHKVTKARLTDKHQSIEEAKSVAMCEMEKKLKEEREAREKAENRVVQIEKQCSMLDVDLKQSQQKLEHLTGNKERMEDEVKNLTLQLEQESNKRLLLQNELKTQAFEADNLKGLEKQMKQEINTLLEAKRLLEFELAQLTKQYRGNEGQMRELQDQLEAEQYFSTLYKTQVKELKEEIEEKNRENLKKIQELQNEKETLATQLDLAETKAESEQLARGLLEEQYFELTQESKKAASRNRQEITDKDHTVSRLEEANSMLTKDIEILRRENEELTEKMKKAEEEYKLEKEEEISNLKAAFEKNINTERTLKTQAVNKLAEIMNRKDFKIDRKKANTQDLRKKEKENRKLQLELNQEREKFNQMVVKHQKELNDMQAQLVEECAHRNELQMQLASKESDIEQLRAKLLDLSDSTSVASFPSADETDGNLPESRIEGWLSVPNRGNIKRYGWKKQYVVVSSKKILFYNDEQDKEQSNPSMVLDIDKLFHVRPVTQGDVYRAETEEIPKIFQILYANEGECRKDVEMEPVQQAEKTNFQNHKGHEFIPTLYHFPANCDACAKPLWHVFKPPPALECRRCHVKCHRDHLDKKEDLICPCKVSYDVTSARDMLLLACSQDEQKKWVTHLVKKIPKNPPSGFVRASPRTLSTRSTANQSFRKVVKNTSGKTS

Turning to `CN1CCN(C(c2ccc(C(F)(F)F)cc2)c2cc(Cl)c3cccnc3c2O)CC1` (configuration not stated), in assay [1], the EC50 is 0.666 µM (active). In addition, the AC50 in assay [2] is 11.9 µM (active). Further, the IC50 in assay [3] was 105 µM (inactive).

For `O=C(NC(CCO)c1ccccc1)c1ccc(-c2ccncc2)cc1` (configuration not stated), the Ki at LIM domain kinase 1 is > 3.16 µM (inactive); in [4] it was > 3.16 µM (inactive); in assay [5] it was > 3.98 µM (inactive); in [6], > 2.51 µM (inactive); in assay [7] it was > 5.01 µM (inactive); in assay [8], > 3.16 µM (inactive). The Ki was > 3.16 µM (inactive) in assay [9]; > 3.98 µM (inactive) in assay [10]; > 6.31 µM (inactive) in [11]; 0.00631 µM (active) in assay [12]; > 3.98 µM (inactive) in assay [13]; > 3.98 µM (inactive) in assay [14]. Moreover, the Ki in assay [15] was > 7.94 µM (inactive); in assay [16], > 2.51 µM (inactive); in assay [17], > 3.98 µM (inactive); in assay [18], > 3.98 µM (inactive).

Take `NC(=O)c1c(NC(=O)c2cc3ccccc3o2)sc2c1CCC2`: the EC50 in the assay “cells” is > 67.5 µM (inactive). Moreover, the results for the IC50 (in [19]; on Estrogen receptor) were 12.4 µM (active) and 23.5 µM (active), respectively.

For orientation: EC50 means the concentration at which the effect is half-maximal. As usually defined, the AC50 is the concentration at which the activity in the assay is half-maximal. The term IC50 denotes the concentration that inhibits the measured activity by half. For orientation: Ki means the equilibrium dissociation constant of an inhibitor or competing ligand from its target.
